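Interpolation was linear, between the two tested concentrations surrounding the appropriate level; five concentrations were tested over 48 hours in 96-well plates. At the GI50, growth is halved.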 The source made the active and inactive calls. Rule as the data show it: active = GI50 up to about 1.1 µM and inactive = higher.
Experiments:
Assay in all cases: DTP human tumour cell line panel, 48 h
NCI-H460 = tested on: NCI-H460
786-0 = tested on: 786-0
RPMI-8226 = tested on: RPMI-8226
DU-145 = tested on: DU-145
OVCAR-3 = tested on: OVCAR-3
A549 = tested on: A549
UACC-62 = tested on: UACC-62
OVCAR-5 = tested on: OVCAR-5
T47D = tested on: T47D
HOP-92 = tested on: HOP-92
MDA-MB-435 = tested on: MDA-MB-435
OVCAR-4 = tested on: OVCAR-4
SK-MEL-28 = tested on: SK-MEL-28
SR = tested on: SR
MDA-N = tested on: MDA-N
SNB-19 = tested on: SNB-19
Hs-578T = tested on: Hs-578T
M14 = tested on: M14
SK-OV-3 = tested on: SK-OV-3

Compound | GI50 (NCI-H460) | GI50 (786-0) | GI50 (RPMI-8226) | GI50 (DU-145) | GI50 (OVCAR-3) | GI50 (A549) | GI50 (UACC-62) | GI50 (OVCAR-5) | GI50 (T47D) | GI50 (HOP-92) | GI50 (MDA-MB-435) | GI50 (OVCAR-4) | GI50 (SK-MEL-28) | GI50 (SR) | GI50 (MDA-N) | GI50 (SNB-19) | GI50 (Hs-578T) | GI50 (M14) | GI50 (SK-OV-3)
CCN(CC)CCOc1ccc(N2Cc3ccccc3C2=O)cc1 | 7.28 µM (inactive) | > 10 µM (inactive) | > 10 µM (inactive) | > 10 µM (inactive) | > 10 µM (inactive) | > 10 µM (inactive) | > 10 µM (inactive) | > 10 µM (inactive) | > 10 µM (inactive) | > 10 µM (inactive) | > 10 µM (inactive) | > 10 µM (inactive) | > 10 µM (inactive) | > 10 µM (inactive) | > 10 µM (inactive) | > 10 µM (inactive) | > 10 µM (inactive) | > 10 µM (inactive) | > 10 µM (inactive)
COCCc1c(C)c(C#N)c2n(C)c3ccccc3n2c1=O | > 10 µM (inactive) | > 10 µM (inactive) | > 10 µM (inactive) | > 10 µM (inactive) | > 10 µM (inactive) | > 10 µM (inactive) | > 10 µM (inactive) | > 10 µM (inactive) | > 10 µM (inactive) | > 10 µM (inactive) | > 10 µM (inactive) | > 10 µM (inactive) | > 10 µM (inactive) | > 10 µM (inactive) | > 10 µM (inactive) | > 10 µM (inactive) | > 10 µM (inactive) | > 10 µM (inactive) | > 10 µM (inactive)
Cc1cc(C)nc(NS(=O)(=O)c2ccc(Nc3nnc(/C=C/c4c(O)ccc5ccccc45)c(=O)n3N)cc2)n1 |  | 28.6 µM (inactive) | 30.1 µM (inactive) | 36.4 µM (inactive) | 13.2 µM (inactive) | 30.7 µM (inactive) | 29 µM (inactive) | 39.3 µM (inactive) | 11.1 µM (inactive) | 47.5 µM (inactive) | 20.1 µM (inactive) | 22.5 µM (inactive) |  | 18.8 µM (inactive) | 25.6 µM (inactive) | 43.1 µM (inactive) | 79.4 µM (inactive) | 22.1 µM (inactive) | 51.4 µM (inactive)
C1=C\SS/C=C\SS/C=C\SS/C=C\SS/1 | 22.9 µM (inactive) | 46 µM (inactive) | 58.7 µM (inactive) | > 100 µM (inactive) |  | > 100 µM (inactive) | > 100 µM (inactive) | > 100 µM (inactive) | > 100 µM (inactive) | 75.7 µM (inactive) | > 100 µM (inactive) | > 100 µM (inactive) | > 100 µM (inactive) | 54.1 µM (inactive) | > 100 µM (inactive) | 67.5 µM (inactive) | > 100 µM (inactive) | 83.9 µM (inactive) | > 100 µM (inactive)
CN1CCN(C(=S)N(C(=O)c2ccc(Cl)cc2)c2ccccc2)CC1 | > 100 µM (inactive) | > 100 µM (inactive) | > 100 µM (inactive) | > 100 µM (inactive) | > 100 µM (inactive) | > 100 µM (inactive) | > 100 µM (inactive) | > 100 µM (inactive) | > 100 µM (inactive) | > 100 µM (inactive) | > 100 µM (inactive) | > 100 µM (inactive) | > 100 µM (inactive) | > 100 µM (inactive) | > 100 µM (inactive) | > 100 µM (inactive) | 34.5 µM (inactive) | > 100 µM (inactive) | 
COc1cccc([C@H]2C/C(=N\NC(=O)C(=O)N[C@@H](C)c3ccccc3)c3ccccc3N2)c1 | > 10 µM (inactive) | 0.0374 µM (active) | < 0.01 µM (active) | 0.0258 µM (active) | 0.0181 µM (active) | 6.15 µM (inactive) | < 0.01 µM (active) | 16.8 µM (inactive) | > 10 µM (inactive) | 7.5 µM (inactive) | < 0.01 µM (active) | 7.48 µM (inactive) | 0.0673 µM (active) | > 10 µM (inactive) | < 0.01 µM (active) | 6.52 µM (inactive) | 0.0237 µM (active) | 0.0249 µM (active) | 0.0491 µM (active)
O[C@H]1[C@H](O)[C@@H](Cn2nnc(-c3ccccc3)c2-c2ccccc2)OCO[C@@H]1Cn1nnc(-c2ccccc2)c1-c1ccccc1 | 3.67 µM (inactive) | 2.88 µM (inactive) | 2.32 µM (inactive) | 7.4 µM (inactive) | 2.96 µM (inactive) | 3.74 µM (inactive) | 2.99 µM (inactive) | 2.58 µM (inactive) | 7.98 µM (inactive) | 2.83 µM (inactive) | 5.04 µM (inactive) | 10.5 µM (inactive) | 6.18 µM (inactive) | 2.04 µM (inactive) | 3.84 µM (inactive) | 8.89 µM (inactive) | 6.85 µM (inactive) | 3.37 µM (inactive) | 3.38 µM (inactive)

Reference: ChEMBL document CHEMBL1201862, “PubChem BioAssay data set” (2004)
